In data set [1] the target is T1, Prostaglandin G/H synthase 1 (Homo sapiens, UniProt P23219). Put plainly: Inhibition of COX1 at 100 uM.
Data set [2] concerns the target T2, Prostaglandin G/H synthase 2 (Homo sapiens, UniProt P35354).
T2 sequence (P35354 whole entry): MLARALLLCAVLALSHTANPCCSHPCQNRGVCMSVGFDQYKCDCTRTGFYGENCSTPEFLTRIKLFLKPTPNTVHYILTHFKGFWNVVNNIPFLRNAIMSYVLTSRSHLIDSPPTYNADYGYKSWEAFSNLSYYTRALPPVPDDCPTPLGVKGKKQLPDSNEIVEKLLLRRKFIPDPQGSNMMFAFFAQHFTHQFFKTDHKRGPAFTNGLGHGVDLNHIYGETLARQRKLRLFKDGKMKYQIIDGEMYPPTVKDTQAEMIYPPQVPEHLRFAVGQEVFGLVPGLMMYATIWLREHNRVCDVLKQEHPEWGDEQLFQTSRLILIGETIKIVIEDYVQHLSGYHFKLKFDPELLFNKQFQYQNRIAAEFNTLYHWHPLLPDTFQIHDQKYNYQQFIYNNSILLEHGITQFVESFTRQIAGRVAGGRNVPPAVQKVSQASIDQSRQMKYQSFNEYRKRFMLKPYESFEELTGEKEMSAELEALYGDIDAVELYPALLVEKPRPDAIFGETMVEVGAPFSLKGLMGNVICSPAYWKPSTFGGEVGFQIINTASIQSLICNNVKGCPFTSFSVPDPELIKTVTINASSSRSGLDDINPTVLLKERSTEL
Put plainly: Inhibition of COX2.

The target in data set [3] is T1, Prostaglandin G/H synthase 1. Put plainly: Inhibition of COX1.
Data set [4] deals with T98G. Put plainly: Cytotoxicity against multidrug-resistant human T98G cells expressing MRP-1 at 50 uM after 3 days by crystal violet staining analysis. It is filed as cell-based. Particulars: 72 h.
Data set [5] concerns T98G. In words: Potentiation of doxorubicin-induced cytotoxicity against multidrug-resistant human T98G cells expressing MRP-1 at 50 uM pretreated for 2 hrs prior addition of doxorubicin measured after 3 days by crystal violet staining analysis. It is filed as functional, cell-based.

Each structure is given as a SMILES string. The source made the active and inactive calls. The calls are words filed in the database; no cut-off is given here.

T1 sequence (P23219 whole entry): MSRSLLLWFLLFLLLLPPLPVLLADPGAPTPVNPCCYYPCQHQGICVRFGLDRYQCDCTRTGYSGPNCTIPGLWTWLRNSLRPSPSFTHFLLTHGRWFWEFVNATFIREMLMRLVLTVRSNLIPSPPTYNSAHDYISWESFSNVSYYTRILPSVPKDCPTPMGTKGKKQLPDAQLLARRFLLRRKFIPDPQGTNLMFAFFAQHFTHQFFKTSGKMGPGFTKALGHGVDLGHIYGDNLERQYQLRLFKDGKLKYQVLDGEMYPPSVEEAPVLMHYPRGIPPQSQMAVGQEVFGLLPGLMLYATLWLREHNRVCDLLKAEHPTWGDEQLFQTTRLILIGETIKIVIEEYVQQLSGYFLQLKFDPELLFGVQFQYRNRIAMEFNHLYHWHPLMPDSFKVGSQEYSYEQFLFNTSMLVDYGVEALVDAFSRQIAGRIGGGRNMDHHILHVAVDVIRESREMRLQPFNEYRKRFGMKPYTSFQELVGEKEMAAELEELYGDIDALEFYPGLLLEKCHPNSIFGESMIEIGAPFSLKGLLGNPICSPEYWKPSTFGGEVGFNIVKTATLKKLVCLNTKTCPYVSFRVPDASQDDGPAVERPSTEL

As usually defined, the inhibition is the share of the control response that was lost under treatment. Higher therefore signals a response far below the control. A word on the IC50: it is the concentration that gives 50% inhibition. The low end stands for greater potency, the high end for weaker potency. Turning to `CCc1c(CC(=O)O)c2ccccc2n1C(=O)c1ccc(Cl)cc1`, the inhibition in data set [1] is below 0%. The IC50 in data set [2] and in data set [3] was above 400 µM in each case. The Activity result in the data set on T98G [4] is on record as “Non-toxic”. For the same compound, the outcome with T98G [5] was Active.
In turn, `CC(=O)Oc1ccccc1C(=O)O` had an inhibition in data set [1] of 38%.
In data set [1], `Cc1c(CC(=O)O)c2ccccc2n1C(=O)c1ccc(Cl)cc1` had an inhibition of 79%. In addition, the IC50 amounted to 39 µM in data set [2] and 0.01 µM in data set [3].
In data set [1], `O=C(O)Cc1c(-c2ccccc2)n(C(=O)c2ccc(Cl)cc2)c2ccccc12` showed an inhibition below 0%. Also, the IC50 in data set [2] and in data set [3] was above 400 µM in each case. Moreover, in the data set on T98G [4], the Activity result was “Non-toxic”. For the same compound, the outcome with T98G [5] was Active.

(Values after ChEMBL document CHEMBL1944630, “Indomethacin Analogues that Enhance Doxorubicin Cytotoxicity in Multidrug Resistant Cells without Cox Inhibitory Activity” (ACS Med Chem Lett, 2011).)
